Reference: patent US20110015120A1, “Pharmaceutical and cosmetic compositions including lactoferrin, ciclopirox, etidronic acid” (VALETUDO S . r . l ., priority 2009, published 2011)
Several values for one entry are separate records, joined by “and”; a condition that tells them apart may be missing. Equal values may be shown once. Entries after “also recorded” stand apart in the source; their conditions may differ.

System: MALASSEZIA GLOBOSA
Assay: Inhibition of Malassezia globosa growth, colony count (UFC/ml) on Dixon's Agar
Type: cell-based
Conditions: for dil 10X colony count: 200 μl of suspension diluted 10X on Petri dish; for dil 10X colony count / X50 (calculation made based on the dilution): three replicates; for AVERAGE: average of three replicates; for % reduction of Malassezia globosa cells growth (% increase of antimycotic activity): compared to CICLOPIROXOLAMINE alone; for X50 (calculation made based on the dilution): dil 10X count x50
Protocol: To assess the capacity of the LACTOFERRIN to enhance the antimycotic action of the CIPROPIROXOLAMIN, a suspension of a MALASSEZIA GLOBOSA STRAIN is inoculated on a specific culture medium and the capacity of the compounds to inhibit the mycotic growth is observed, by counting of the UFC/ml.
As first approach, the two compounds are tested at the concentration of 1:500 and, subsequently, diluted in culture medium at 2 decreasing concentrations (10× and 100×) in order to visualize the individual activities. Then in order to evaluate the capacity of the LACTOFERRIN to increase the antimycotic effect of the CICLOPIROXOLAMIN, the same test was carried out on the mix of the two active ingredients at different ratios (1:2 and 1:5).
Each test was performed three times and the incubation times were 1 and 4 hours respectively.
Based on the results obtained, the best dilution for the execution of the tests was the 10× dilution and both the incubation times (1 hour and 4 hours) were taken into consideration since the experimental conditions permitted an accurate count to be carried out of the colonies on the Petri dishes.
The microorganism used is MALASSEZIA GLOBOSA.
The microorganisms were cultured in specific culture medium (Dixon's Agar) until reaching a concentration of approximately […] per ml. Aliquots of 1 ml of this inoculum were then taken to which were added respectively: • Ciclopiroxolamine 1:500 • Lactoferrin 1:500 • Mixture 1:2 Ciclopiroxolamine:lactoferrin • Mixture 1:5 Ciclopiroxolamine:lactoferrin
As positive control, the untreated inoculum was used (MALASSEZIA and diluting liquid), as negative controls the two active ingredients in diluting liquid.
After incubations of 1 hour and 4 hours respectively, aliquots of 200 μl of each suspension were spread on Petri dishes.
For each treatment, the test was carried out three times and for 3 different dilutions (non diluted suspension (TQ), dilution 10× and dilution 100×).
The 54 dishes obtained were then examined, after incubation of 5-6 days and the microbial load of each specimen was calculated (UFC/ml).
The % increase of the antimycotic property corresponds to the % reduction of the growth of Malassezia Globosa

## Cc1cc(C2CCCCC2)n(O)c(=O)c1 [CICLOPIROXOLAMINE, Ciclopirox Olamine]
After four hours of incubation
  reduction in the growth of Malassezia Globosa (in words): marked reduction
After one hour of incubation
  reduction in the growth of Malassezia Globosa (in words): marked reduction
Overall statement
  antimycotic activity towards Malassezia Globosa (in words): decidedly more effective in reducing the growth compared to the LACTOFERRIN; also recorded: marked antimycotic activity
Period of incubation 1 hour
  Log (AVERAGE): 3.985
  dil 10X colony count: 208 and 170 and 202
  AVERAGE: 9666.667 UFC/ml
  % reduction of Malassezia globosa cells growth (% increase of antimycotic activity): 0%
  X50 (calculation made based on the dilution): 10400 UFC/ml and 8500 UFC/ml and 10100 UFC/ml
Period of incubation 4 hour
  Log (AVERAGE): 3.209
  dil 10X colony count: 38 and 34 and 25
  AVERAGE: 1616.667 UFC/ml
  % reduction of Malassezia globosa cells growth (% increase of antimycotic activity): 0%
  X50 (calculation made based on the dilution): 1900 UFC/ml and 1700 UFC/ml and 1250 UFC/ml
